Measured values reported in the NIST ThermoML archive (doi:10.1016/j.jct.2014.05.020).
± gives the expanded uncertainty stated by the source.

Experiment: excess molar enthalpy (molar enthalpy of mixing); xn = mol fraction of the nth substance listed
Details: Liquid, Flow calorimetry

Question: What does the source list for `C1CCCCC1` [cyclohexane] + c1ccccc1?
Answer: excess molar enthalpy (423.2 K, 25000 kPa, x2 = 0.829): 0.0735 ± 0.00311 kcal/mol; excess molar enthalpy (423.2 K, 25000 kPa, x2 = 0.8729): 0.0576 ± 0.00311 kcal/mol; excess molar enthalpy (423.2 K, 25000 kPa, x2 = 0.916): 0.0394 ± 0.00335 kcal/mol; excess molar enthalpy (423.2 K, 25000 kPa, x2 = 0.9584): 0.0193 ± 0.00335 kcal/mol; excess molar enthalpy (473.2 K, 5000 kPa, x2 = 0.1189): 0.0453 ± 0.00287 kcal/mol; excess molar enthalpy (473.2 K, 5000 kPa, x2 = 0.1765): 0.0633 ± 0.00287 kcal/mol; excess molar enthalpy (473.2 K, 5000 kPa, x2 = 0.233): 0.0777 ± 0.00287 kcal/mol; excess molar enthalpy (473.2 K, 5000 kPa, x2 = 0.3424): 0.0989 ± 0.00287 kcal/mol; excess molar enthalpy (473.2 K, 5000 kPa, x2 = 0.4475): 0.11 ± 0.00287 kcal/mol; excess molar enthalpy (473.2 K, 5000 kPa, x2 = 0.5485): 0.111 ± 0.00287 kcal/mol; excess molar enthalpy (473.2 K, 5000 kPa, x2 = 0.6457): 0.103 ± 0.00287 kcal/mol; excess molar enthalpy (473.2 K, 5000 kPa, x2 = 0.7392): 0.0873 ± 0.00287 kcal/mol; excess molar enthalpy (473.2 K, 5000 kPa, x2 = 0.8293): 0.0633 ± 0.00287 kcal/mol; excess molar enthalpy (473.2 K, 5000 kPa, x2 = 0.8732): 0.0486 ± 0.00311 kcal/mol; excess molar enthalpy (473.2 K, 5000 kPa, x2 = 0.9162): 0.0332 ± 0.00311 kcal/mol; excess molar enthalpy (473.2 K, 5000 kPa, x2 = 0.9585): 0.0184 ± 0.00311 kcal/mol; excess molar enthalpy (473.2 K, 15000 kPa, x2 = 0.1188): 0.0434 ± 0.00287 kcal/mol; excess molar enthalpy (473.2 K, 15000 kPa, x2 = 0.1763): 0.0605 ± 0.00287 kcal/mol; excess molar enthalpy (473.2 K, 15000 kPa, x2 = 0.2327): 0.075 ± 0.00287 kcal/mol; excess molar enthalpy (473.2 K, 15000 kPa, x2 = 0.3421): 0.0956 ± 0.00287 kcal/mol; excess molar enthalpy (473.2 K, 15000 kPa, x2 = 0.4471): 0.106 ± 0.00287 kcal/mol; excess molar enthalpy (473.2 K, 15000 kPa, x2 = 0.5482): 0.107 ± 0.00287 kcal/mol; excess molar enthalpy (473.2 K, 15000 kPa, x2 = 0.6454): 0.1 ± 0.00287 kcal/mol; excess molar enthalpy (473.2 K, 15000 kPa, x2 = 0.7389): 0.0848 ± 0.00287 kcal/mol; excess molar enthalpy (473.2 K, 15000 kPa, x2 = 0.8291): 0.0615 ± 0.00287 kcal/mol; excess molar enthalpy (473.2 K, 15000 kPa, x2 = 0.873): 0.047 ± 0.00311 kcal/mol; excess molar enthalpy (473.2 K, 15000 kPa, x2 = 0.9161): 0.0316 ± 0.00311 kcal/mol; excess molar enthalpy (473.2 K, 15000 kPa, x2 = 0.9584): 0.0173 ± 0.00311 kcal/mol; excess molar enthalpy (473.2 K, 25000 kPa, x2 = 0.1187): 0.042 ± 0.00287 kcal/mol; excess molar enthalpy (473.2 K, 25000 kPa, x2 = 0.1762): 0.0588 ± 0.00287 kcal/mol; excess molar enthalpy (473.2 K, 25000 kPa, x2 = 0.2325): 0.0729 ± 0.00287 kcal/mol; excess molar enthalpy (473.2 K, 25000 kPa, x2 = 0.3418): 0.0929 ± 0.00287 kcal/mol; excess molar enthalpy (473.2 K, 25000 kPa, x2 = 0.4469): 0.103 ± 0.00287 kcal/mol; excess molar enthalpy (473.2 K, 25000 kPa, x2 = 0.5479): 0.104 ± 0.00287 kcal/mol; excess molar enthalpy (473.2 K, 25000 kPa, x2 = 0.6451): 0.0968 ± 0.00287 kcal/mol; excess molar enthalpy (473.2 K, 25000 kPa, x2 = 0.7388): 0.0815 ± 0.00287 kcal/mol; excess molar enthalpy (473.2 K, 25000 kPa, x2 = 0.829): 0.0584 ± 0.00287 kcal/mol; excess molar enthalpy (473.2 K, 25000 kPa, x2 = 0.8729): 0.0442 ± 0.00311 kcal/mol; excess molar enthalpy (473.2 K, 25000 kPa, x2 = 0.916): 0.0288 ± 0.00311 kcal/mol; excess molar enthalpy (473.2 K, 25000 kPa, x2 = 0.9584): 0.0149 ± 0.00287 kcal/mol; excess molar enthalpy (498.2 K, 5000 kPa, x2 = 0.1189): 0.0447 ± 0.00287 kcal/mol; excess molar enthalpy (498.2 K, 5000 kPa, x2 = 0.1765): 0.0625 ± 0.00287 kcal/mol; excess molar enthalpy (498.2 K, 5000 kPa, x2 = 0.233): 0.0774 ± 0.00287 kcal/mol; excess molar enthalpy (498.2 K, 5000 kPa, x2 = 0.3424): 0.0984 ± 0.00287 kcal/mol; excess molar enthalpy (498.2 K, 5000 kPa, x2 = 0.4475): 0.109 ± 0.00287 kcal/mol; excess molar enthalpy (498.2 K, 5000 kPa, x2 = 0.5485): 0.11 ± 0.00287 kcal/mol; excess molar enthalpy (498.2 K, 5000 kPa, x2 = 0.6457): 0.102 ± 0.00287 kcal/mol; excess molar enthalpy (498.2 K, 5000 kPa, x2 = 0.7392): 0.0863 ± 0.00287 kcal/mol; excess molar enthalpy (498.2 K, 5000 kPa, x2 = 0.8293): 0.0618 ± 0.00287 kcal/mol; excess molar enthalpy (498.2 K, 5000 kPa, x2 = 0.8732): 0.0465 ± 0.00311 kcal/mol; excess molar enthalpy (498.2 K, 5000 kPa, x2 = 0.9162): 0.0295 ± 0.00311 kcal/mol; excess molar enthalpy (498.2 K, 15000 kPa, x2 = 0.1188): 0.0418 ± 0.00287 kcal/mol; excess molar enthalpy (498.2 K, 15000 kPa, x2 = 0.1763): 0.0582 ± 0.00287 kcal/mol; excess molar enthalpy (498.2 K, 15000 kPa, x2 = 0.2327): 0.0716 ± 0.00287 kcal/mol; excess molar enthalpy (498.2 K, 15000 kPa, x2 = 0.3421): 0.091 ± 0.00287 kcal/mol; excess molar enthalpy (498.2 K, 15000 kPa, x2 = 0.4471): 0.101 ± 0.00287 kcal/mol; excess molar enthalpy (498.2 K, 15000 kPa, x2 = 0.5482): 0.102 ± 0.00287 kcal/mol; excess molar enthalpy (498.2 K, 15000 kPa, x2 = 0.6454): 0.0943 ± 0.00287 kcal/mol; excess molar enthalpy (498.2 K, 15000 kPa, x2 = 0.7389): 0.0791 ± 0.00287 kcal/mol; excess molar enthalpy (498.2 K, 15000 kPa, x2 = 0.8291): 0.0565 ± 0.00287 kcal/mol; excess molar enthalpy (498.2 K, 15000 kPa, x2 = 0.873): 0.042 ± 0.00311 kcal/mol
